From publication PMC9833666, “Designing and identifying β-hairpin peptide macrocycles with antibiotic potential” (Science Advances, 2023)
Bridge positions count the residues as written; N and C are the ends. Peptide text beside a SMILES is read from it.

Tests used:
[1] = system: Acinetobacter baumannii AB5075; details: AB5075
Protocol: MICs were performed by a modifiedClinical and Laboratory Standards Institute) procedure. […] Separately, E. coli W3110 or A. baumannii AB5075 was grown overnight in 5 ml of standard MH at 37°C. Cells from these cultures were diluted to a concentration of 5 × 10^5 to 6 × 10^5 cells/ml in either standard MH, MHII, RPMI, or fetal bovine serum, and 90 μl was added to each well of the 96-well plate containing diluted peptide. Plates were wrapped twice in parafilm and incubated at 37°C for 18 to 24 hours. Wells were examined by eye against wells with no bacteria for signs of growth. MICs were reported as the minimum concentration with no observable growth. In cases where triplicate samples differed, the concentration supported by the median of the three replicates was reported. […]
For consistency, all SynCH peptides were resuspended at 10 mg/ml in water. Peptides were then visually inspected for any lack of solubility (Data File S1). […]
We had this library commercially synthesized and tested its ability to inhibit the growth of Acinetobacter baumannii AB5075, a clinically isolated Carbapenem Resistant Acinetobacter (CRA) pathogen. MICs were performed in MH as well as 100% FBS, which is likely more representative of the in vivo environment. […]

Escherichia coli W3110 = type: cell-based; details: for Ec W3110 MIC MH: E. coli W3110, MH medium; for Ec W3110 MIC RPMI: E. coli W3110, RPMI medium

AB5075 MIC FBS [1] [µg/mL] | AB5075 MIC MH [1] [µg/mL] | W3110 MIC MH (Escherichia coli W3110; W3110) [µg/mL] | W3110 MIC RPMI (Escherichia coli W3110; W3110) [µg/mL] | Structure (SMILES) | also measured
> 128 | 16 | – | – | CC(C)C[C@@H]1NC(=O)[C@H](CO)NC(=O)[C@H](C(C)C)NC(=O)[C@H](CCCCN)NC(=O)[C@H](CCCNC(=N)N)NC(=O)CNC(=O)[C@H](CCCNC(=N)N)NC(=O)[C@H](CCCNC(=N)N)NC(=O)[C@H](CCCNC(=N)N)NC(=O)[C@H](CC(C)C)NC(=O)[C@H](CCCNC(=N)N)NC(=O)[C@H](C(C)C)NC(=O)[C@H](CCCNC(=N)N)NC(=O)[C@@H](N)CSSC[C@@H](C(=O)O)NC(=O)[C@H](CCCNC(=N)N)NC1=O [SySA-5.24] (H-CRVRLRRRGRKVSLRC-OH; disulfide 1-16) | –
> 128 | 4 | – | – | CC(C)C[C@@H]1NC(=O)[C@H](CCCNC(=N)N)NC(=O)[C@H](C(C)C)NC(=O)[C@H](CCCCN)NC(=O)[C@H](CCCNC(=N)N)NC(=O)[C@H](CCCNC(=N)N)NC(=O)[C@H](CCCNC(=N)N)NC(=O)[C@H](CCCNC(=N)N)NC(=O)[C@H](CC(C)C)NC(=O)[C@H](CCCNC(=N)N)NC(=O)[C@H](C(C)C)NC(=O)[C@H](CCCNC(=N)N)NC(=O)[C@H](CC(C)C)NC(=O)[C@@H](N)CSSC[C@@H](C(=O)O)NC(=O)[C@H](C(C)C)NC(=O)[C@H](CCC(N)=O)NC1=O [SySA-5.19] (H-CLRVRLRRRRKVRLQVC-OH; disulfide 1-17) | –
64 | 4 | – | – | CC(C)C[C@@H]1NC(=O)[C@H](CCCNC(=N)N)NC(=O)[C@H](C(C)C)NC(=O)[C@H](CCCCN)NC(=O)[C@H](CCCNC(=N)N)NC(=O)CNC(=O)[C@H](CCCNC(=N)N)NC(=O)[C@H](CCCNC(=N)N)NC(=O)[C@H](CCCNC(=N)N)NC(=O)[C@H](CC(C)C)NC(=O)[C@H](CCCNC(=N)N)NC(=O)[C@H](C(C)C)NC(=O)[C@H](CCCNC(=N)N)NC(=O)[C@H](CC(C)C)NC(=O)[C@@H](N)CSSC[C@@H](C(=O)O)NC(=O)[C@H](C(C)C)NC(=O)[C@H](CCC(N)=O)NC1=O [SySA-5.11] (H-CLRVRLRRRGRKVRLQVC-OH; disulfide 1-18) | –
> 128 | 8 | – | – | CC(C)C[C@@H]1NC(=O)[C@H](CO)NC(=O)[C@H](C(C)C)NC(=O)[C@H](CCCCN)NC(=O)[C@H](C(C)C)NC(=O)[C@H](CCCNC(=N)N)NC(=O)CNC(=O)[C@H](CCCNC(=N)N)NC(=O)[C@H](CCCNC(=N)N)NC(=O)[C@H](CC(N)=O)NC(=O)[C@H](CC(N)=O)NC(=O)[C@H](CC(C)C)NC(=O)[C@H](CCCNC(=N)N)NC(=O)[C@H](C(C)C)NC(=O)[C@H](CCCNC(=N)N)NC(=O)[C@@H](N)CSSC[C@@H](C(=O)O)NC(=O)[C@H](CCC(N)=O)NC1=O [SySA-5.5] (H-CRVRLNNRRGRVKVSLQC-OH; disulfide 1-18) | –
128 | 8 | – | – | CC(C)C[C@@H]1NC(=O)[C@H](CCCNC(=N)N)NC(=O)[C@H](C(C)C)NC(=O)[C@H](CCCNC(=N)N)NC(=O)[C@H](CC(C)C)NC(=O)[C@@H](N)CSSC[C@@H](C(=O)O)NC(=O)[C@H](C(C)C)NC(=O)[C@H](CCCNC(=N)N)NC(=O)[C@H](CC(C)C)NC(=O)[C@H](CO)NC(=O)[C@H](C(C)C)NC(=O)[C@H](CCCCN)NC(=O)[C@H](C(C)C)NC(=O)[C@H](CCCNC(=N)N)NC(=O)CNC(=O)[C@H](CCCNC(=N)N)NC(=O)[C@H](CCCNC(=N)N)NC(=O)[C@H](CC(N)=O)NC(=O)[C@H](CCCNC(=N)N)NC1=O [SySA-5.1] (H-CLRVRLRNRRGRVKVSLRVC-OH; disulfide 1-20) | –
128 | 4 | – | – | CC(C)C[C@@H]1NC(=O)[C@H](CO)NC(=O)[C@H](C(C)C)NC(=O)[C@H](CCCCN)NC(=O)[C@H](CCCNC(=N)N)NC(=O)CNC(=O)[C@H](CCCNC(=N)N)NC(=O)[C@H](CCCNC(=N)N)NC(=O)[C@H](CC(N)=O)NC(=O)[C@H](CC(C)C)NC(=O)[C@H](CCCNC(=N)N)NC(=O)[C@H](C(C)C)NC(=O)[C@H](CCCNC(=N)N)NC(=O)[C@H](CC(C)C)NC(=O)[C@@H](N)CSSC[C@@H](C(=O)O)NC(=O)[C@H](C(C)C)NC(=O)[C@H](CCC(N)=O)NC1=O [SySA-5.10] (H-CLRVRLNRRGRKVSLQVC-OH; disulfide 1-18) | –
> 128 | 4 | – | – | CC(C)C[C@@H]1NC(=O)[C@H](CCCNC(=N)N)NC(=O)[C@H](C(C)C)NC(=O)[C@H](CCCNC(=N)N)NC(=O)[C@H](CC(C)C)NC(=O)[C@@H](N)CSSC[C@@H](C(=O)O)NC(=O)[C@H](C(C)C)NC(=O)[C@H](CCCNC(=N)N)NC(=O)[C@H](CC(C)C)NC(=O)[C@H](CCCNC(=N)N)NC(=O)[C@H](C(C)C)NC(=O)[C@H](CCCCN)NC(=O)[C@H](C(C)C)NC(=O)[C@H](CCCNC(=N)N)NC(=O)[C@H](CCCNC(=N)N)NC(=O)[C@H](CCCNC(=N)N)NC(=O)[C@H](CCCNC(=N)N)NC(=O)[C@H](CC(N)=O)NC(=O)[C@H](CCCNC(=N)N)NC1=O [SySA-5.2] (H-CLRVRLRNRRRRVKVRLRVC-OH; disulfide 1-20) | –
128 | 4 | – | – | CC(C)C[C@@H]1NC(=O)[C@H](CCCNC(=N)N)NC(=O)[C@H](C(C)C)NC(=O)[C@H](CCCCN)NC(=O)[C@H](CCCNC(=N)N)NC(=O)[C@H](CCCNC(=N)N)NC(=O)[C@H](CCCNC(=N)N)NC(=O)[C@H](CCCNC(=N)N)NC(=O)[C@H](CC(C)C)NC(=O)[C@H](CCCNC(=N)N)NC(=O)[C@H](C(C)C)NC(=O)[C@H](CCCNC(=N)N)NC(=O)[C@H](CC(C)C)NC(=O)[C@@H](N)CSSC[C@@H](C(=O)O)NC(=O)[C@H](C(C)C)NC(=O)[C@H](CCCNC(=N)N)NC1=O [SySA-5.20] (H-CLRVRLRRRRKVRLRVC-OH; disulfide 1-17) | –
– | – | – | – | CC[C@H](C)[C@@H]1NC(=O)[C@H](CCCNC(=N)N)NC(=O)[C@H](C(C)C)NC(=O)CNC(=O)[C@H](CCCNC(=N)N)NC(=O)CNC(=O)CNC(=O)[C@H](CC(N)=O)NC(=O)[C@H](CC(=O)O)NC(=O)[C@H](CC(C)C)NC(=O)[C@H](CCCNC(=N)N)NC(=O)[C@H]([C@@H](C)CC)NC(=O)[C@H]([C@@H](C)O)NC(=O)[C@H](CC(C)C)NC(=O)[C@@H](N)CSSC[C@@H](C(=O)O)NC(=O)[C@H](C(C)C)NC(=O)[C@H](CCC(N)=O)NC(=O)[C@H](CC(C)C)NC(=O)[C@H](CO)NC1=O [SyRA-5] (H-CLTIRLDNGGRGVRISLQVC-OH; disulfide 1-20) | W3110 MIC (Escherichia coli W3110; W3110): >256 µg/mL
– | – | 64 | 8 | CC[C@H](C)[C@@H]1NC(=O)[C@H](CCCCN)NC(=O)[C@H](CC(C)C)NC(=O)CNC(=O)[C@H](CCCNC(=N)N)NC(=O)[C@H](CCCNC(=N)N)NC(=O)[C@H](CCCNC(=N)N)NC(=O)[C@H](CC(N)=O)NC(=O)[C@H](CC(N)=O)NC(=O)[C@H](CC(C)C)NC(=O)[C@H](CCCNC(=N)N)NC(=O)[C@H]([C@@H](C)CC)NC(=O)[C@H](CCCNC(=N)N)NC(=O)[C@H](C(C)C)NC(=O)[C@@H](N)CSSC[C@@H](C(=O)O)NC(=O)[C@H](C(C)C)NC(=O)[C@H](CCC(N)=O)NC(=O)[C@H](CC(C)C)NC(=O)[C@H](CO)NC1=O [SySA-82] (H-CVRIRLNNRRRGLKISLQVC-OH; disulfide 1-20; N-terminus and C-terminus assumed) | Ec W3110 MIC MH (Escherichia coli W3110): 64 µg/mL; Ec W3110 MIC RPMI (Escherichia coli W3110): 8 µg/mL
– | – | 32 | 8 | CC[C@H](C)[C@@H]1NC(=O)[C@H](CCCNC(=N)N)NC(=O)[C@H](C(C)C)NC(=O)[C@@H](N)CSSC[C@@H](C(=O)O)NC(=O)[C@H](C(C)C)NC(=O)[C@H](CCC(N)=O)NC(=O)[C@H](CC(C)C)NC(=O)[C@H](CO)NC(=O)[C@H](C(C)C)NC(=O)[C@H](CCCCN)NC(=O)[C@H](CC(C)C)NC(=O)CNC(=O)[C@H](CCCNC(=N)N)NC(=O)[C@H](CCCNC(=N)N)NC(=O)[C@H](CCCNC(=N)N)NC(=O)[C@H](CC(N)=O)NC(=O)[C@H](CC(N)=O)NC(=O)[C@H](CC(C)C)NC(=O)[C@H](CCCNC(=N)N)NC1=O [SySA-40] (H-CVRIRLNNRRRGLKVSLQVC-OH; disulfide 1-20; N-terminus and C-terminus assumed) | Ec W3110 MIC MH (Escherichia coli W3110): 32 µg/mL; Ec W3110 MIC RPMI (Escherichia coli W3110): 8 µg/mL
– | – | 128 | 32 | CC[C@H](C)[C@@H]1NC(=O)[C@H](CCCNC(=N)N)NC(=O)[C@H](C(C)C)NC(=O)[C@@H](N)CSSC[C@@H](C(=O)O)NC(=O)[C@H](C(C)C)NC(=O)[C@H](CCC(N)=O)NC(=O)[C@H](C(C)C)NC(=O)[C@H](CO)NC(=O)[C@H](C(C)C)NC(=O)[C@H](CCCCN)NC(=O)[C@H](C(C)C)NC(=O)CNC(=O)[C@H](CCCNC(=N)N)NC(=O)[C@H](CCCNC(=N)N)NC(=O)[C@H](CCCNC(=N)N)NC(=O)[C@H](CC(N)=O)NC(=O)[C@H](CC(N)=O)NC(=O)[C@H](CC(C)C)NC(=O)[C@H](CCCNC(=N)N)NC1=O [SySA-66] (H-CVRIRLNNRRRGVKVSVQVC-OH; disulfide 1-20) | –
– | – | 64 | 8 | CC(C)C[C@@H]1NC(=O)[C@H](CCCNC(=N)N)NC(=O)[C@H](C(C)C)NC(=O)[C@H](CCCNC(=N)N)NC(=O)[C@H](CC(C)C)NC(=O)[C@@H](N)CSSC[C@@H](C(=O)O)NC(=O)[C@H](C(C)C)NC(=O)[C@H](CCC(N)=O)NC(=O)[C@H](C(C)C)NC(=O)[C@H](CO)NC(=O)[C@H](C(C)C)NC(=O)[C@H](CCCCN)NC(=O)[C@H](C(C)C)NC(=O)CNC(=O)[C@H](CCCNC(=N)N)NC(=O)[C@H](CCCNC(=N)N)NC(=O)[C@H](CCCNC(=N)N)NC(=O)[C@H](CC(N)=O)NC(=O)[C@H](CC(N)=O)NC1=O [SySA-25] (H-CLRVRLNNRRRGVKVSVQVC-OH; disulfide 1-20; N-terminus and C-terminus assumed) | Ec W3110 MIC MH (Escherichia coli W3110): 64 µg/mL; Ec W3110 MIC RPMI (Escherichia coli W3110): 8 µg/mL
